Biological target: PAD4 (Homo sapiens, UniProt Q9UM07)
Assay: PAD4 Inhibition Assay (citrulline formation from BAEE substrate)
Format: biochemical
Details: PAD4 75 nM, 60 minute preincubation at 37° C., 90 minutes
Description: PAD4 was diluted to 75 nM in Assay Buffer (50 mM Tris-HCl, 2 mM CaCl2), 2 mM DTT, 1 mM PMSF in H2O) and added to wells with various concentrations of compound or DMSO vehicle in Eppendorf tubes (final volume was 100 μL). Following a 60 minute preincubation at 37° C., the reaction was initiated by the addition of 10 μL substrate (22 mM BAEE in H2O) at 37° C. The reaction was stopped after 90 minutes by the addition of 25 μL HClO4 (5 M), 125 μL Reagent A (10 g/L diacetyl monoxime and 15 g/L NaCl in H2O) and 250 μL Reagent B (10 mg/mL antipyrine and 1.0 mg/mL FeCl3 diluted in detection buffer containing 25% H2SO4, 25% H3PO4 and 50% H2O) in sequence. This assay was quenched in an ice-bath for 5 minutes after boiling for 30 minutes. The citrulline formation was measured in fluorescence (κ=465 nm) on microplate reader and the IC50 was calculated by GraphPad Prism.

Chain of PAD4 (Q9UM07 whole entry): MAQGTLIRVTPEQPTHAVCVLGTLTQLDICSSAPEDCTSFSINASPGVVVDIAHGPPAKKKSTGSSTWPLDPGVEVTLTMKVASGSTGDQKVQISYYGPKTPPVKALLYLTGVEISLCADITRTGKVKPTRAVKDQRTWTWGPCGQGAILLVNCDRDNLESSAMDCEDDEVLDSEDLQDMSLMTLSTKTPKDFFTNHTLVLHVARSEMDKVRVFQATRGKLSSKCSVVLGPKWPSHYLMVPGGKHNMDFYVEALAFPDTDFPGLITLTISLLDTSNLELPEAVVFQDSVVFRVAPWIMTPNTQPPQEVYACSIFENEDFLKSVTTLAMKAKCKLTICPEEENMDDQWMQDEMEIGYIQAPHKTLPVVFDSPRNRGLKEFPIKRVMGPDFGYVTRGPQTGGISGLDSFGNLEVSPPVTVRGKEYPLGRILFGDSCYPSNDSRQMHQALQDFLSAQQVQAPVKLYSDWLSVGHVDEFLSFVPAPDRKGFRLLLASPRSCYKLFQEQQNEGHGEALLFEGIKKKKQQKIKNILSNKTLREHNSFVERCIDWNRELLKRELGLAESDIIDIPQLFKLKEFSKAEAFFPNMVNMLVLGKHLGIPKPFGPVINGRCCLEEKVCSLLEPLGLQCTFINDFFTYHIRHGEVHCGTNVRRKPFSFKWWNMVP

| SMILES | IC50 [nM] |
| --- | --- |
| COc1ccccc1C(=O)N[C@@H](CCCNC(=N)CF)c1ncc(-c2ccccc2)[nH]1 [EX-37, (S)—N-(4-(2-fluoroacetimidamido)-1-(5-phenyl-1H-imidazol-2-yl)butyl)-2-methoxybenzamide] | > 500 |
| COc1ccc(-c2ccccc2)cc1C(=O)N[C@@H](CCCNC(=N)CF)c1ncc(-c2ccccc2)o1 [EX-38, (S)—N-(4-(2-fluoroacetimidamido)-1-(5-phenyloxazol-2-yl)butyl)-4-methoxy-[1,1′-biphenyl]-3-carboxamide] | 200 to 500 |
| COc1cccc(OC)c1C(=O)N[C@@H](CCCNC(=N)CF)c1nnc(-c2ccc(Cl)cc2)o1 [EX-39, (S)—N-(1-(5-(4-Chlorophenyl)-1,3,4-oxadiazol-2-yl)-4-(2-fluoroacetimidamido)butyl)-2,6-dimethoxybenzamide] | > 500 |
| COc1cccc(OC)c1C(=O)N[C@@H](CCCNC(=N)CF)c1nc(-c2ccc(Cl)cc2)no1 [EX-40] | > 500 |
| COc1cccc(Cl)c1C(=O)N[C@@H](CCCNC(=N)CF)c1ncc(-c2cccc(NC(=O)CCCNC(=O)CCCC[C@@H]3SC[C@@H]4NC(=O)N[C@@H]43)c2)o1 [EX-41, 2-Chloro-N—((S)-4-(2-fluoroacetimidamido)-1-(5-(3-(4-(5-((3aS,4S,6aR)-2-oxohexahydro-1H-thieno[3,4-d]imidazol-4-yl)pentanamido)butanamido)phenyl)oxazol-2-yl)butyl)-6-methoxybenzamide] | 200 to 500 |
| COc1ccc(OCCCNC(=O)CCCC(=O)NCCCOCCOCCOCCCNC(=O)CCCC[C@@H]2SC[C@@H]3NC(=O)N[C@@H]32)cc1C(=O)N[C@@H](CCCNC(=N)CF)c1ncc(-c2cccc(Cl)c2)o1 [EX-42, N^1-(3-(3-(((S)-1-(5-(3-Chlorophenyl)oxazol-2-yl)-4-(2-fluoroacetimidamido)butyl)carbamoyl)-4-methoxyphenoxy)propyl)-N^5-(15-oxo-19-((3aS,4S,6aR)-2-oxohexahydro-1H-thieno[3,4-d]imidazol-4-yl)-4,7,10-trioxa-14-azanonadecyl)glutaramide] | > 500 |

Source: patent publication US20230381146A1, “SUBSTITUTED HETEROARYL COMPOUNDS AND USE THEREOF” (HELIOS HUAMING BIOPHARMA CO., LTD., priority 2020, published 2023)
